Series [1] deals with epididymal sperm. Particulars: rat, in vivo. As to the method:
In Vivo Procedures: Gestating outbred Sprague-Dawley and inbred Fisher mother rats from timed, pregnant colonies housed at the Washington State University Vivarium, were given intraperitoneal injections of vinclozolin (100 mg/kg/day) and methoxychlor (200 mg/kg/day) from embryonic day 8-15 (E8-E15, sperm positive vaginal smear date=E0) of gestation (F0 generation) as previously described. Gestating mothers administered vehicle, sesame oil or DMSO, served as controls. At least 6 lines (individual F0 injected females) were generated for controls and treated groups for these analyses. Male rats from control and treated groups were collected at P60-P180 for analyses. F1 treated males were bred to F1 treated females to generate the F2 treated generation and F2 treated males were bred to F2 treated females to generate the F3 generation and the F3 were bred in the same manner to generate the F4 generation. Rats for the control groups were bred in the same manner for all the generations. No inbreeding or sibling crosses were generated. The outcross group (VOC) were generated by breeding the F2 treated males with wild-type females (total of 6 litters) and reverse outcross group (RVOC) was generated by breeding F2 treated females with wild-type males (total of 3 litters). Control (n=4) and treated (n=4) male offspring from the F1 generation from Fisher strain rats were collected at P6 for DNA methylation analysis, see below. All procedures have been approved by the Washington State University Animal Care Committee. […]
Sperm Motility and Concentration Analysis: Animals were sacrificed and cauda epididymal sperm motility was determined using cauda epididymal sperm. […] All the motile sperm including rapid progressive, slow progressive and non-progressive were counted according to WHO category. Percent ratio of the motile sperm to the total number of sperm including immotile sperm was calculated. Epididymal sperm count was determined using the same epididymis sample according to a previously described method with some modifications.

Series [2] has as its system NCAM1. Kind of series: Semi-quantitative PCR of NCAM1 expression in adult brain. Format: in vivo, rat. Particulars: F3 generation males vs control. The method, then: The expression of one of the known genes nearest an altered methylation site identified candidate #1 (NCAM1), is primarily brain specific. An analysis of gene expression for NCAM in the brain was performed. Brains from adult control and vinclozolin F3 generation males were isolated, and RNA was prepared. Four control and five vinclozolin F3 generation animals were analyzed separately. […] This decreased expression of NCAM1 was quantitated, and over a 10-fold reduction in expression was observed between control and vinclozolin F3 generation males, FIG. 15C. Therefore, the hypermethylation of the candidate #1 site in sperm DNA was associated with a reduction in NCAM1 expression in the adult male brain, in vinclozolin F3 generation animals.

Series [3] concerns vinclozolin generation animals. Particulars: rat, in vivo. The text has this: A number of the genes associated with the methylation changes identified have a relationship with various disease states, Table 3. […] Therefore, alterations in the epigenetic (DNA methylation) and/or expression of these genes is associated with a number of disease states. In addition to these correlations to previous literature, the vinclozolin generation animals develop a variety of disease states. Vinclozolin (F1-F4) generation animals between 6-12 months of age develop a variety of disease states or abnormalities, Table 4 [153]. Therefore, the vinclozolin generational animals used develop a variety of diseases, and have the altered epigenetic programming of the male germ-line. Combined observations indicate that the epigenetic alterations in the germ-line DNA and associated genes identified in this Example, are associated with a number of disease states, Tables 3 and 4.

The test system of series [4] is E16 testis. The series can be described thus: Microarray gene expression analysis of embryonic testis. Format: in vivo, rat. The following applies: F1 and F2 generation E16 testis vs control. The text has this:
Microarray analysis: RNA was collected from embryonic day […] 16 (E16) testis from control and E16 vinclozolin F1 and F2 generation animals as described above for Example I. RNA was hybridized to the Affymetrix (Affymetrix, Santa Clara, Calif.) rat 230A gene chip. The Genomics Core in the Center for Reproductive Biology at Washington State University, Pullman, Wash., performed the analysis as previously described, and incorporated by reference herein [149, 150]. Briefly, RNA from the cells was reverse transcribed into cDNA then was transcribed into biotin labeled RNA. Biotin labeled RNA was then hybridized to the Affymetrix rat 230A gene chips. Each gene set is composed of 16 pairs of […] oligonucleotides, with one sense strand specific for the gene and one anti-sense strand with single point mutations for use as a comparative negative control. Biotinalated RNA was then visualized by labeling with phycoerythrin-coupled avidin. The microarray was scanned on a Hewlett-Packard Gene Array Scanner (Hewlett-Packard Co., Palo Alto, Calif.).
Bioinformatics: The majority of the data analysis was performed using the Affymetrix Microarray Suite Software (Affymetrix, Santa Clara, Calif.). […] Basic expression analysis was determined by accessing the Affymetrix database through the Microarray Suite Software. […]

For series [5], the system named is male rats. The following applies: rat, in vivo. As to the method:
(§1) In Vivo Procedures: Gestating outbred Sprague-Dawley and inbred Fisher mother rats from timed, pregnant colonies housed at the Washington State University Vivarium, were given intraperitoneal injections of vinclozolin (100 mg/kg/day) and methoxychlor (200 mg/kg/day) from embryonic day 8-15 (E8-E15, sperm positive vaginal smear date=E0) of gestation (F0 generation) as previously described. Gestating mothers administered vehicle, sesame oil or DMSO, served as controls. At least 6 lines (individual F0 injected females) were generated for controls and treated groups for these analyses. Male rats from control and treated groups were collected at P60-P180 for analyses. F1 treated males were bred to F1 treated females to generate the F2 treated generation and F2 treated males were bred to F2 treated females to generate the F3 generation and the F3 were bred in the same manner to generate the F4 generation. Rats for the control groups were bred in the same manner for all the generations. No inbreeding or sibling crosses were generated. The outcross group (VOC) were generated by breeding the F2 treated males with wild-type females (total of 6 litters) and reverse outcross group (RVOC) was generated by breeding F2 treated females with wild-type males (total of 3 litters). Control (n=4) and treated (n=4) male offspring from the F1 generation from Fisher strain rats were collected at P6 for DNA methylation analysis, see below. All procedures have been approved by the Washington State University Animal Care Committee. The number of animals used for replicates in the experiments (i.e. n value) are as follows for vinclozolin treatment: F1 (control 11, treated 12); F2 (control 19, treated 30); F3 (control 19, treated 26); F4 (control 10, treated 17); VOC (18); and RVOC (6). For methoxychlor treatment animal number was for F1 (control 6, treated 9) and F2 (control 16, treated 22).
Histology: Tissues were fixed in Bouin's (Amresco, Solon Ohio) and embedded in paraffin, and then sections stained with hematoxylin and eosin, according to standard procedures. The n=50 treated vinclozolin, n=42 controls.

Series [6] in a line: General observations (body weight, litter size, serum testosterone, other tissues). Format: in vivo, rat. The method, then:
as §1

Some results are limits rather than exact numbers.

The source of these data is US8586307B2, “Methods for diagnosing epigenetic, transgenerational effects of environmental toxicants on mammalian germ-lines and treating associated diseases” (priority 2005, dated 2013).

Consider `C=CC1(C)OC(=O)N(c2cc(Cl)cc(Cl)c2)C1=O` (stereo not shown) [vinclozolin], for which, in series [1] (male), the “sperm forward motility reduced” value was “approximately 20%” and the sperm numbers reduced result is listed as “approximately 20%”. In series [1], the “sperm number and motility in outcross (VOC) males” value is “decrease”. Besides, in series [2], the “reduction in NCAM1 expression” value was more than 10 fold. Further, in series [3], the “Prevalence, Immune Abnormalities” value was 27%; the “Prevalence, Kidney Disease” value stood at 40%; the “Prevalence, Prostate Disease” value was found to be 50%; the “Prevalence, Testis Defect” value stood at 30%. In series [3], the “Prevalence, Tumor Development (e.g. breast)” value was 17% and the “frequency at which generation animals develop disease states” value is on record as approximately 85%. For the same compound, in series [4], the “expression of Fadd, Pbm1b, Rps12 and Waspip” value was “increased expression”; the “expression of ankyrin 28, Ncstn, Rab12 and Lrrn6a” value is “reduced expression”. Further, in series [5] (male), the “animals that developed a dramatic decrease in spermatogenic capacity” value was “approximately 20%”; the “animals with infertility associated with small testis and severely reduced spermatogenesis” value was 4 animals; the “transgenerational animals that developed complete infertility” value is 8%. Moreover, in series [5], the “histology of the testis, control versus treated” value was “similar”; the “infertility in outcrossed (VOC) males” value is “increased infertility”; the “infertility in reverse outcross (RVOC)” value was “no infertility”. The serum testosterone levels result in series [6] (all the animals) was “normal”. Besides, in series [6] (rat, in vivo), the “effect on total body weight” value is recorded as “no effect”; the “gross abnormality in any other tissues examined” value is reported as “No gross abnormality”; the “litter size, newborn pup weights or testis weight per body weight” value is “no change”.
